Each structure is given as a SMILES string.

This is an account of results in patent publication US9073892B2, “Indazolyl triazol derivatives” (Merck Serono S.A., priority 2010, dated 2015).

In one assay the test system is T1, IRAK1/4 human.
T1 construct: fused on or other part: His tag and TEV cleavage site at the N-terminus
In words: IRAK1/4 phosphorylation IC50 (enzymatic assay, table 2). The class given is biochemical. As to conditions: human IRAK1/4 phosphorylation. The essentials: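 Compounds in DMSO, from 20 µM down to 1 nM, were incubated with ATP and His-TEV-tagged human IRAK-1 or IRAK-4 in 384-well plates, with STK1-biotin peptide added for IRAK-4. The 2 or 3 hour reactions used Hepes pH7.0 50 mM with MgCl2, DTT, EGTA and BSA. The values report inhibition as IC50.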

Assay [1] relates to IL1β-induced IL8 release in THP1 cells. The experiment in a line: IRAK IL8 secretion functional assay. Format: cell-based. As to conditions: Homo sapiens; THP-1 cells, IL1β 100 ng/ml overnight, IL8 by HTRF; read-out: IC50, Secretion THP-1/IL-β induced IL8 release. An excerpt:
IRAK IL8 Secretion Functional Assay:
THP1 cells are human monocytes derived from acute monocytic leukemia. IL1β receptor expressed on the surface membrane of THP1 cells induced IL8 release. IRAKs are kinase signaling downstream of TLRs and TNF, IL-18, IL-33 and IL-1 receptors.
In cells, IRAK4 is upstream of IRAK1.
The Human IL8 Kit, provided by CysBio International based in Bagnols/Cèze FR, allows for the quantitative determination of IL-8 in cell-culture supernatants.
Anti-cytokine IL8 antibodies are respectively labeled with europium Cryptate and XL665. Upon their binding to IL-8 molecules, the two antibodies come into close proximity, allowing FRET (Fluorescence Resonance Energy Transfer) to occur. This FRET increases proportionally to IL-8 concentrations and be converted in IL8 pg amounts.
THP-1 cells are seeded on Day 1 in 384 well plate with RPMI 1640 at a density of 30 000 cells/well. Compounds 4×/2% DMSO (range of concentrations from 20 μM to 1 nM) and IL1β 4× at 100 ng/ml final are added to cells overnight at 37° C., 5% CO2. Measurement of IL-8 secretion is done by mixing on Day2 10 μl of supernatant with 10 μl of a mix solution of europium Cryptate and XL665 (v:v) as described by supplier.
HTRF (homogeneous time resolved fluorescence) signal is measured after 3 hours incubation time at 30° C. with a BMG Pherastar reader or equivalent.
On the technique in general: In TR-FRET formats the signal depends on donor and acceptor labels being close together.

As to `CN1CCC(NC(=O)c2ccc(-n3cc(-c4n[nH]c5ccccc45)nn3)cc2)C1=O` (stereo not drawn) [Example 31, 4-[4-(1H-indazol-3-yl)-1H-1,2,3-triazol-1-yl]-N-(1-methyl-2-oxopyrrolidin-3-yl)benzamide], the IC50 (in the assay with IRAK1/4 human; in assay [1]) was 100 to 1000 nM throughout.

In the case of `Cc1ccc2[nH]nc(-c3cn(-c4ccc(C(=O)N5CCOCC5)cc4)nn3)c2c1` [Example 32, 5-methyl-3-{1-[4-(morpholin-4-ylcarbonyl)phenyl]-1H-1,2,3-triazol-4-yl}-1H-indazole], the IC50 (with IRAK1/4 human; in assay [1]) was 100 to 1000 nM each time.

Take `COc1cc(-n2cc(-c3n[nH]c4ccccc34)nn2)ccc1C(=O)N1CCOCC1` [Example 34, 3-{1-[3-methoxy-4-(morpholin-4-ylcarbonyl)phenyl]-1H-1,2,3-triazol-4-yl}-1H-indazole]: the IC50 with IRAK1/4 human is 1000 to 5000 nM; in assay [1] it was 100 to 1000 nM.

For the compound `O=C(c1ccc(-n2cc(-c3n[nH]c4ccccc34)nn2)cc1)N1CCCC1` [Example 35, 3-{1-[4-(pyrrolidin-1-ylcarbonyl)phenyl]-1H-1,2,3-triazol-4-yl}-1H-indazole], the figures for the IC50 (with IRAK1/4 human; in assay [1]) were less than 100 nM and 100 to 1000 nM, respectively.

In the case of `CN(C)C(=O)c1ccc(-n2cc(-c3n[nH]c4ccccc34)nn2)cc1` [Example 36, 4-[4-(1H-indazol-3-yl)-1H-1,2,3-triazol-1-yl]-N,N-dimethylbenzamide], the IC50 (with IRAK1/4 human; in assay [1]) was 100 to 1000 nM each time.

Take `COCC1CCN(C(=O)c2ccc(-n3cc(-c4n[nH]c5ccccc45)nn3)cc2)CC1` [Example 37, 3-[1-(4-{[4-(methoxymethyl)piperidin-1-yl]carbonyl}phenyl)-1H-1,2,3-triazol-4-yl]-1H-indazole]: the IC50 (with IRAK1/4 human; in assay [1]) was 100 to 1000 nM in each case.

`O=C(c1ccc(-n2cc(-c3n[nH]c4ccccc34)nn2)cc1)N1CCCCC1` [Example 38, 3-{1-[4-(piperidin-1-ylcarbonyl)phenyl]-1H-1,2,3-triazol-4-yl}-1H-indazole]: the IC50 is 1000 to 5000 nM in the assay with IRAK1/4 human and 100 to 1000 nM in assay [1].

For `CC(=O)N1CCN(C(=O)c2ccc(-n3cc(-c4n[nH]c5ccccc45)nn3)cc2)CC1` [Example 39, 3-(1-{4-[(4-acetylpiperazin-1-yl)carbonyl]phenyl}-1H-1,2,3-triazol-4-yl)-1H-indazole], the IC50 (in the assay on IRAK1/4 human; in assay [1]) was 100 to 1000 nM each time.

On to `O=C(NCCCN1CCCC1)c1ccc(-n2cc(-c3n[nH]c4ccccc34)nn2)cc1` [Example 40, 4-[4-(1H-indazol-3-yl)-1H-1,2,3-triazol-1-yl]-N-(3-pyrrolidin-1-ylpropyl)benzamide], for which the IC50 (with IRAK1/4 human; in assay [1]) was 100 to 1000 nM each time.

On to `CCN(CC)CCCNC(=O)c1ccc(-n2cc(-c3n[nH]c4ccccc34)nn2)cc1` [Example 42, N-[3-(diethylamino)propyl]-4-[4-(1H-indazol-3-yl)-1H-1,2,3-triazol-1-yl]benzamide], for which the IC50 (in the assay on IRAK1/4 human; in assay [1]) was 100 to 1000 nM each time.

On to `CN(CCc1ccncc1)C(=O)c1ccc(-n2cc(-c3n[nH]c4ccccc34)nn2)cc1` [Example 43, 4-[4-(1H-indazol-3-yl)-1H-1,2,3-triazol-1-yl]-N-methyl-N-(2-pyridin-4-ylethyl)benzamide], for which the IC50 (in the assay with IRAK1/4 human; in assay [1]) was 100 to 1000 nM each time.

Consider `O=C(NCCN1CCCCC1)c1ccc(-n2cc(-c3n[nH]c4ccccc34)nn2)cc1` [Example 44, 4-[4-(1H-indazol-3-yl)-1H-1,2,3-triazol-1-yl]-N-(2-piperidin-1-ylethyl)benzamide], for which the IC50 (in the assay on IRAK1/4 human; in assay [1]) was 100 to 1000 nM in each case.

Consider `CN1CCCN(C(=O)c2ccc(-n3cc(-c4n[nH]c5ccccc45)nn3)cc2)CC1` [Example 48, 3-(1-{4-[(4-methyl-1,4-diazepan-1-yl)carbonyl]phenyl}-1H-1,2,3-triazol-4-yl)-1H-indazole], for which the IC50 (with IRAK1/4 human; in assay [1]) was 100 to 1000 nM in each case.

Regarding `CCNC(=O)c1ccc(-n2cc(-c3n[nH]c4ccccc34)nn2)cc1` [Example 49, N-ethyl-4-[4-(1H-indazol-3-yl)-1H-1,2,3-triazol-1-yl]benzamide], the IC50 (in the assay on IRAK1/4 human; in assay [1]) was 100 to 1000 nM each time.

As for `COCCNC(=O)c1ccc(-n2cc(-c3n[nH]c4ccccc34)nn2)cc1` [Example 50, 4-[4-(1H-indazol-3-yl)-1H-1,2,3-triazol-1-yl]-N-(2-methoxyethyl)benzamide], the IC50 (with IRAK1/4 human; in assay [1]) was 100 to 1000 nM in each case.

Regarding `O=C(NCc1ccco1)c1ccc(-n2cc(-c3n[nH]c4ccccc34)nn2)cc1` [Example 51, N-(2-furylmethyl)-4-[4-(1H-indazol-3-yl)-1H-1,2,3-triazol-1-yl]benzamide], the IC50 with IRAK1/4 human lay in the range of 100 to 1000 nM; in assay [1] it was 1000 to 5000 nM.

Take `CCN1CCN(C(=O)c2ccc(-n3cc(-c4n[nH]c5ccccc45)nn3)cc2)CC1` [Example 52, 3-(1-{4-[(4-ethylpiperazin-1-yl)carbonyl]phenyl)-1H-1,2,3-triazol-4-yl)-1H-indazole]: the IC50 (in the assay on IRAK1/4 human; in assay [1]) was 100 to 1000 nM each time.

Regarding `O=C(NC1CC1)c1ccc(-n2cc(-c3n[nH]c4ccccc34)nn2)cc1` [Example 53, N-cyclopropyl-4-[4-(1H-indazol-3-yl)-1H-1,2,3-triazol-1-yl]benzamide], the IC50 (with IRAK1/4 human; in assay [1]) was 100 to 1000 nM throughout.

For `CNC(=O)c1ccc(-n2cc(-c3n[nH]c4ccccc34)nn2)cc1` [Example 54, 4-[4-(1H-indazol-3-yl)-1H-1,2,3-triazol-1-yl]-N-methylbenzamide], the IC50 (in the assay on IRAK1/4 human; in assay [1]) was 100 to 1000 nM throughout.

As for `O=C(NCC1CC1)c1ccc(-n2cc(-c3n[nH]c4ccccc34)nn2)cc1` [Example 55], the IC50 (with IRAK1/4 human; in assay [1]) was 100 to 1000 nM throughout.

For `CCN1CCN(C(=O)c2cccc(-n3cc(-c4n[nH]c5ccccc45)nn3)c2)CC1` [Example 60, 3-(1-{3-[(4-ethylpiperazin-1-yl)carbonyl]phenyl}-1H-1,2,3-triazol-4-yl)-1H-indazole], the IC50 (with IRAK1/4 human; in assay [1]) was 1000 to 5000 nM throughout.

Consider `O=C(c1ccc(-n2cc(-c3n[nH]c4ccccc34)nn2)cc1)N1CCC(O)CC1` [Example 71, 1-{4-[4(1H-indazol-3-yl)-1H-1,2,3-triazol-1-yl]benzoyl}piperidin-ol], for which the IC50 (with IRAK1/4 human; in assay [1]) was 100 to 1000 nM each time.

Take `CN(C)C1CCN(C(=O)c2ccc(-n3cc(-c4n[nH]c5ccccc45)nn3)cc2)CC1` [Example 72, 1-{4-[4-(1H-indazol-3-yl)-1H-1,2,3-triazol-1-yl]benzoyl}-N,N-dimethylpiperidin-4-amine]: the results for the IC50 (in the assay on IRAK1/4 human; in assay [1]) were 100 to 1000 nM and less than 100 nM, respectively.

Take `O=C(c1ccc(-n2cc(-c3n[nH]c4ccccc34)nn2)cc1)N1CCCC(C(=O)N2CCCC2)C1` (stereo not drawn) [Example 73, 3-[1-(4-{[3-(pyrrolidin-1-ylcarbonyl)piperidin-1-yl]carbonyl}phenyl)-1H-1,2,3-triazol-4-yl]-1H-indazole]: the IC50 in the assay with IRAK1/4 human is 100 to 1000 nM; in assay [1], less than 100 nM.

Take `O=C(c1ccc(-n2cc(-c3n[nH]c4ccccc34)nn2)cc1)N1CCCC(CN2CCOCC2)C1` (stereo not drawn) [Example 74]: the IC50 (in the assay on IRAK1/4 human; in assay [1]) was 100 to 1000 nM throughout.

On to `O=C1CCCN1CC1CCCN(C(=O)c2ccc(-n3cc(-c4n[nH]c5ccccc45)nn3)cc2)C1` (stereo not drawn) [Example 75, 1-[(1-{4-[4-(1H-indazol-3-yl)-1H-1,2,3-triazol-1-yl]benzoyl}piperidin-3-yl)methyl]pyrrolidin-2], for which the IC50 (with IRAK1/4 human; in assay [1]) was 100 to 1000 nM in each case.

`CN1CCCC2(CCCN(C(=O)c3ccc(-n4cc(-c5n[nH]c6ccccc56)nn4)cc3)C2)C1` (stereo not drawn) [Example 76, 2-{4-[4-(1H-indazol-3-yl)-1H-1,2,3-triazol-1-yl]benzoyl}-8-methyl-2,8-diazaspiro[5.5]undecane]: the IC50 (in the assay with IRAK1/4 human; in assay [1]) was less than 100 nM each time.

Consider `CN1CCCC(CNC(=O)c2ccc(-n3cc(-c4n[nH]c5ccccc45)nn3)cc2)C1` (stereo not drawn) [Example 77, 4-[4-(1H-indazol-3-yl)-1H-1,2,3-triazol-1-yl]-N-[(1-methylpiperidin-3-yl)methyl]benzamide], for which the IC50 (in the assay with IRAK1/4 human; in assay [1]) was 100 to 1000 nM throughout.

For the compound `CN1CCN(C(=O)Cc2cccc(-n3cc(-c4n[nH]c5ccccc45)nn3)c2)CC1` [Example 79, 3-(1-{3-[2-(4-methylpiperazin-1-yl)-2-oxoethyl]phenyl}-1H-1,2,3-triazol-4-yl)-1H-indazole], the IC50 (with IRAK1/4 human; in assay [1]) was 1000 to 5000 nM in each case.

With `c1cc(CCN2CCOCC2)cc(-n2cc(-c3n[nH]c4ccccc34)nn2)c1` [Example 80, 3-{1-[3-(2-morpholin-4-ylethyl)phenyl]-1H-1,2,3-triazol-4-yl}-1H-indazole], the IC50 (with IRAK1/4 human; in assay [1]) was 1000 to 5000 nM in each case.
